Test results as given in patent EP3046573B1, “AMYLIN ANALOGUES” (Zealand Pharma A/S, priority 2013, dated 2015).
Where two headings read alike, the source gives them in different places. Numbered stars: 1 amine (or outer) side, 2 acyl side, 3 side chain; on linkers, the order of the positions; unused ones are H or OH. Bridge positions count the residues as written; N and C are the ends. Square brackets hold non-standard residues; d marks the D form. Peptide text beside a SMILES is read from it. * marks the point of attachment. Pro(trans-4-Ph) = O=C(O)[C@@H]1C[C@@H](c2ccccc2)CN1; C20 diacid = O=C(O)CCCCCCCCCCCCCCCCCCC(=O)*; γGlu = O=C(O)[C@H](CCC(=O)[*:2])N[*:1]; Hyp = O=C(O)[C@@H]1C[C@@H](O)CN1; NMeI = CC[C@H](C)[C@H](NC)C(=O)O; Sar = CNCC(=O)O

Key:
[1] = target: T1, human calcitonin receptor (hCTR2) (Homo sapiens, UniProt P30988); assay: hCTR2 assay: induction of cAMP (AlphaScreen cAMP Assay kit) in COS7 cells expressing hCTR2; assay type: cell-based; settings: cAMP induction in COS7 cells expressing hCTR2; average of a minimum of 3 determinations; read-out: hCTR2 EC50
T1 construct: expressed in transfected cells
T1 sequence (P30988 25-474): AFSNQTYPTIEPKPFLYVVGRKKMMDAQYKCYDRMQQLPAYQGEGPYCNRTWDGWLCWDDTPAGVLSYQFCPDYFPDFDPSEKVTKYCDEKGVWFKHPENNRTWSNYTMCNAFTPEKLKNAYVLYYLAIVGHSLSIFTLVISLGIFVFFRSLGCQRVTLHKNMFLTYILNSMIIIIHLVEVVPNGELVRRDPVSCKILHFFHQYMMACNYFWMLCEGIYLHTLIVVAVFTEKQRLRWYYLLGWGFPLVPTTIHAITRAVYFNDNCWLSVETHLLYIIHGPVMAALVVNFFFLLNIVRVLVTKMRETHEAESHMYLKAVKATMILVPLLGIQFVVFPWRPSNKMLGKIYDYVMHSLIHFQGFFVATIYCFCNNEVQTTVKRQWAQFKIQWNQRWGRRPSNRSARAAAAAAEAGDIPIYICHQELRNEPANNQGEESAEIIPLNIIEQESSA
How it was run: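 Cells were seeded one day ahead, washed, then exposed to rising peptide concentrations for 15 min at 37° C in the presence of 100 µM IBMX. After lysis for 10 min at room temperature, cAMP was quantified by AlphaScreen and EC50 values derived by 4PL fitting.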

[2] = target: T2, human amylin receptor 3 (hAMYR3) consisting of hCTR2 co-expressed with human Receptor Activity Modifying Protein 3 (hRAMP3) (Homo sapiens, UniProt O60896+P30988); assay: hAMYR3 assay: induction of cAMP (AlphaScreen cAMP Assay kit) in COS7 cells expressing hAMYR3; assay type: cell-based
T2 construct: expressed in transfected cells
T2 sequence (P30988 25-474): T1 sequence (P30988 25-474)
T2 sequence (O60896 24-148 partner): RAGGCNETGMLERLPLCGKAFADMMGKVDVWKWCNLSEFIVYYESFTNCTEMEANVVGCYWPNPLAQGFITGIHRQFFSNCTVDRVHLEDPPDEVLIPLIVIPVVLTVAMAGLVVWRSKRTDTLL
From the text: The cell line COS7, originating from African Green Monkey kidney fibroblast cells, was used for establishment of the stable cell lines described below. The COS7 cellular background was used due to it being RAMP naive, and as such it provides the best available system for testing of the monomeric hCTR and different heterodimeric amylin receptor subtypes functionally generated by introduction of the individual RAMPs.
A cell line expressing the human amylin receptor 3 (hAMYR3) was generated in the COS7 cellular background as stable clones. In brief, hCTR2 (GI:4502547) and hRAMP3 (GI:118572586) were amplified by PCR using primers encoding terminal restriction sites for subcloning. The 5'-end primers additionally encoded a near Kozak consensus sequence to ensure efficient translation. The fidelity of the DNA encoding the receptor was confirmed by DNA sequencing. The PCR products encoding the receptor were subcloned into a proprietary tri-cistronic mammalian expression vector with RAMP3, hCTR2 and neomycin (G418) resistance marker. The mammalian expression vector encoding the receptor was transfected into COS7 cells by a standard liposome transfection method. 48 hours post-transfection, cells were seeded for limited dilution cloning and selected with 1 mg/ml G418 in the culture medium. After 3 weeks, surviving colonies of hAMY3R-expressing cells were picked, propagated and tested in the amylin efficacy assay as described in Example 3 below. The functional generation of the amylin receptor phenotype was verified in the efficacy assay by a left-shifted efficacy response to amylin relative to monomeric calcitonin receptor, and one hAMYR3-expressing clone was chosen for compound profiling.
In vitro activity of test peptides at the hCTR2 and hAMYR3 receptors was assessed by measuring the induction of cAMP following stimulation of the receptor by pramlintide or peptides of the invention using the AlphaScreen® cAMP Assay kit from Perkin-Elmer.
Briefly, COS7 cells expressing hCTR2 (see Example 2, above) were seeded at 30-40,000 cells per well in 96-well microtiter plates coated with 0.01 % poly-L-lysine, and grown for 1 day in culture in 100 µl growth medium [DMEM, 10% FCS, Penicillin (100 IU/ml), Streptomycin (100 µg/ml)]. On the day of analysis, growth medium was removed and the cells were washed once with 200 µl Tyrode buffer [Tyrode's Salts (9.6 g/l), 10 mM HEPES, pH 7.4]. Cells were incubated in 100 µl Tyrode buffer containing increasing concentrations of test peptides, 100 µM IBMX and 0.1% casein for 15 min at 37° C. The reaction was stopped by carefully decanting off the compound/buffer medium and replacing it with lysis/detection buffer (80 µl 0.1 % w/v BSA, 5 mM HEPES, 0.3 % v/v Tween-20 in deionized water). After incubation at room temperature for 10 min., the cAMP content of the resulting cell lysate was estimated according to the AlphaScreen® cAMP Assay manufacturer's instructions. EC50 values and relative efficacy values (in %) compared to reference peptide (Pramlintide) were estimated by computer-aided curve fitting using the 4-parameter logistic (4PL) non-linear model.
The in vitro activity results (expressed as EC50 values) for peptides of the invention and for Pramlintide (reference peptide) are summarized in Table 2, below.

[3] = Solubility assessment (turbidity absorbance at 325 nm); assay type: physicochemical; settings: stock 2 mg/ml diluted 1:1, ambient temperature (typically 25°C), n=1
How it was run: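 Turbidimetric screen across pH 4.0–7.5 in 100 mM acetate, histidine and phosphate buffers. A 2 mg/ml peptide stock (pH 2.5) was diluted 1:1 into each, then A325 measured at ambient temperature; values ≤ 0.02 AU denoted solubility of 1 mg/ml or more.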

[4] = cAMP induction in COS7 cells expressing hAMYR3, average of a minimum of 3 determinations, read-out: hAMY R3 EC50

Structure (SMILES) | EC50 [1] [nM] | EC50 [2, 4] [nM] | Solubility, Acetate buffer pH 4 ([3]; 100 mM acetate buffer pH 4.0) | Solubility, Acetate buffer pH 5 ([3]; 100 mM acetate buffer pH 5.0) | Solubility, Histidine buffer pH 6 ([3]; 100 mM histidine buffer pH 6.0) | Solubility, Histidine buffer pH 7 ([3]; 100 mM histidine buffer pH 7.0) | Solubility, Phosphate buffer pH 6 ([3]; 100 mM phosphate buffer pH 6.0) | Solubility, Phosphate buffer pH 7 ([3]; 100 mM phosphate buffer pH 7.0) | Solubility, Phosphate buffer pH 7.5 ([3]; 100 mM phosphate buffer pH7.5) | EC50 [2] [nM]
CC[C@H](C)[C@@H](C(=O)N[C@@H](CC(C)C)C(=O)N[C@@H](CO)C(=O)N[C@@H](CO)C(=O)N[C@H](C(=O)N[C@@H](CC(N)=O)C(=O)N[C@H](C(=O)NCC(=O)N[C@@H](CO)C(=O)N[C@@H](CC(N)=O)C(=O)N[C@H](C(=O)N1C[C@H](c2ccccc2)C[C@H]1C(N)=O)[C@@H](C)O)C(C)C)[C@@H](C)O)N(C)C(=O)CN(C)C(=O)[C@H](Cc1ccccc1)NC(=O)[C@H](CC(N)=O)NC(=O)[C@H](CC(N)=O)NC(=O)[C@H](CO)NC(=O)[C@H](CO)NC(=O)[C@H](CCCNC(=N)N)NC(=O)[C@H](Cc1c[nH]cn1)NC(=O)[C@H](CC(C)C)NC(=O)[C@H](Cc1ccccc1)NC(=O)[C@H](CCC(=O)O)NC(=O)[C@H](C)NC(=O)[C@H](CC(C)C)NC(=O)[C@H](CCCNC(=N)N)NC(=O)[C@H](CCC(N)=O)NC(=O)[C@@H](NC(=O)[C@H](C)NC(=O)[C@@H]1CSSC[C@H](NC(=O)[C@H](CCCNC(=N)N)NC(=O)CC[C@H](NC(=O)CCCCCCCCCCCCCCCCCCC(=O)O)C(=O)O)C(=O)N[C@@H](CC(N)=O)C(=O)N[C@@H]([C@@H](C)O)C(=O)N[C@@H](C)C(=O)N[C@@H]([C@@H](C)O)C(=O)N1)[C@@H](C)O [Compound 113, [19CD]-isoGlu-RC()NTATC()ATQRLAEFLHRSSNNF-Gly(Me)-Ile(Me)-LSSTNVGSNT-Php-NH2] ({C20 diacid-γGlu}-RCNTATCATQRLAEFLHRSSNNF[Sar][NMeI]LSSTNVGSNT[Pro(trans-4-Ph)]-NH2; disulfide 2-7) | 0.17 | 0.19 | – | – | – | – | – | – | – | –
CC[C@H](C)[C@@H](C(=O)N[C@@H](CC(C)C)C(=O)N[C@@H](CO)C(=O)N[C@@H](CO)C(=O)N[C@H](C(=O)N[C@@H](CCC(=O)O)C(=O)N[C@H](C(=O)NCC(=O)N[C@@H](CO)C(=O)N[C@@H](CCC(=O)O)C(=O)N[C@H](C(=O)N1C[C@H](O)C[C@H]1C(N)=O)[C@@H](C)O)C(C)C)[C@@H](C)O)N(C)C(=O)[C@H](C)NC(=O)CN(C)C(=O)[C@H](Cc1ccccc1)NC(=O)[C@H](CO)NC(=O)[C@H](CO)NC(=O)[C@H](CCCNC(=N)N)NC(=O)[C@H](Cc1c[nH]cn1)NC(=O)[C@H](CC(C)C)NC(=O)[C@H](Cc1ccccc1)NC(=O)[C@H](CCC(=O)O)NC(=O)[C@H](C)NC(=O)[C@H](CC(C)C)NC(=O)[C@H](CCCNC(=N)N)NC(=O)[C@H](CCC(=O)O)NC(=O)[C@@H](NC(=O)[C@H](C)NC(=O)[C@@H]1CSSC[C@H](NC(=O)[C@H](Cc2c[nH]c3ccccc23)NC(=O)CC[C@H](NC(=O)CCCCCCCCCCCCCCCCCCC(=O)O)C(=O)O)C(=O)NCC(=O)N[C@@H]([C@@H](C)O)C(=O)N[C@@H](C)C(=O)N[C@@H]([C@@H](C)O)C(=O)N1)[C@@H](C)O [Compound 164, [19CD]-isoGlu-WC()GTATC()ATERLAEFLHRSSF-Gly(Me)-A-Ile(Me)-LSSTEVGSET-Hyp-NH2] ({C20 diacid-γGlu}-WCGTATCATERLAEFLHRSSF[Sar]A[NMeI]LSSTEVGSET[Hyp]-NH2; disulfide 2-7) | 0.1 | 0.27 | – | – | – | – | – | – | – | –
CC[C@H](C)[C@@H](C(=O)N[C@@H](CC(C)C)C(=O)N[C@@H](CO)C(=O)N[C@@H](CO)C(=O)N[C@H](C(=O)N[C@@H](CC(N)=O)C(=O)N[C@H](C(=O)NCC(=O)N[C@@H](CO)C(=O)N[C@@H](CC(N)=O)C(=O)N[C@H](C(=O)N1CCC[C@H]1C(N)=O)[C@@H](C)O)C(C)C)[C@@H](C)O)N(C)C(=O)[C@H](C)NC(=O)CN(C)C(=O)[C@H](Cc1ccccc1)NC(=O)[C@H](CC(N)=O)NC(=O)[C@H](CC(N)=O)NC(=O)[C@H](CO)NC(=O)[C@H](CO)NC(=O)[C@H](CCCNC(=N)N)NC(=O)[C@H](Cc1c[nH]cn1)NC(=O)[C@H](CC(C)C)NC(=O)[C@H](Cc1ccccc1)NC(=O)[C@H](CCC(=O)O)NC(=O)[C@H](C)NC(=O)[C@H](CC(C)C)NC(=O)[C@H](CCCNC(=N)N)NC(=O)[C@H](CCC(N)=O)NC(=O)[C@@H](NC(=O)[C@H](C)NC(=O)[C@@H]1CSSC[C@H](NC(=O)[C@H](CCCNC(=N)N)NC(=O)[C@H](CCCNC(=N)N)NC(=O)CC[C@H](NC(=O)CCCCCCCCCCCCCCCCCCC(=O)O)C(=O)O)C(=O)N[C@@H](CC(N)=O)C(=O)N[C@@H]([C@@H](C)O)C(=O)N[C@@H](C)C(=O)N[C@@H]([C@@H](C)O)C(=O)N1)[C@@H](C)O [Compound 83, [19CD]-isoGlu-RRC()NTATC()ATQRLAEFLHRSSNNF-Gly(Me)-A-Ile(Me)-LSSTNVGSNTP-NH2] ({C20 diacid-γGlu}-RRCNTATCATQRLAEFLHRSSNNF[Sar]A[NMeI]LSSTNVGSNTP-NH2; disulfide 3-8) | – | – | SS (SS indicates solubility ≥ 1mg/ml) | SS (SS indicates solubility ≥ 1mg/ml) | SS (SS indicates solubility ≥ 1mg/ml) | SS (SS indicates solubility ≥ 1mg/ml) | SS (SS indicates solubility ≥ 1mg/ml) | SS (SS indicates solubility ≥ 1mg/ml) | SS (SS indicates solubility ≥ 1mg/ml) | 0.095
